SMILES strings stand for the structures.

Experiment [1] relates to KPL-4 subcutaneous xenograft. Description: KPL-4 xenograft model as monotherapy (FIG. 12). The format is in vivo, nude mice. As for the experimental part: (§1) A human HER-2 positive breast cancer cell line KPL-4, which had been cultured in a DMEM containing 10% FBS, and penicillin-streptomycin, was adjusted to a concentration of 1×10^8 cells/mL with Hanks' Balanced Salt Solution to prepare a cell suspension. The cell suspension was inoculated in a volume of 100 μL into a subcutaneous part of a right flank of nude mice, 8 weeks of ages (CAnN.Cg-Foxnlnu/CrlCrlj, female, Charles River Laboratories Japan Inc.). Eleven days after cell inoculation (Day 1), the shortest diameter and the longest diameter of a tumor in each mouse were measured by using an electronic digital caliper (Digimatic™ caliper, Mitutoyo Corporation), so as to calculate the volume of the tumor in accordance with the following calculation formulae: […]
(§2) On the basis of the volumes of tumors obtained on Day 1, the mice were grouped such that averages of the tumor volumes were substantially equal among the groups. The experiment was conducted on groups each consisting of six mice. The test compound was dissolved in DMSO and a solution was stored in the freezer before use. Immediately before the administration, the stock solution was diluted with saline. The test compound in saline was intravenously once-weekly administered at 20 μg/kg, 60 μg/kg, or 180 μg/kg for 2 weeks (on Day 1 and Day 8).

In experiment [2] the test system is COLO-704 subcutaneous xenograft. Description: COLO-704 xenograft model as monotherapy (FIG. 12). The format is in vivo, nude mice. As for the experimental part: as §1, with “human ovarian” for “human HER-2 positive breast”, “line COLO-704,” for “line KPL-4,”, “a RPMI-1640” for “a DMEM”, “mice, 5” for “mice, 8”, “ages (CAnN.Cg- Foxnlnu/CrlCrlj,” for “ages (CAnN.Cg-Foxnlnu/CrlCrlj,”, “Inc.). Nine” for “Inc.). Eleven”
as §2

Experiment [3] concerns human uterine sarcoma cell line MES-SA xenograft. In words: MES-SA soft tissue sarcoma xenograft as monotherapy (FIG. 17). The format is in vivo, nude mice. To be noted: 180 μg/kg i.v. Day 1 and Day 8. As for the experimental part: A human uterine sarcoma cell line MES-SA, which had been cultured in an RPMI-1640 containing 10% FBS, and penicillin-streptomycin, was adjusted to a concentration of 2×10^8 cells/mL with Hanks' Balanced Salt Solution to prepare a cell suspension, and the suspension was mixed with Geltrex® (Thermo Fisher Scientific Inc., #A1413202) in a ratio of 1:1 to prepare a cell suspension in a concentration of 1×10^8 cells/mL. The cell suspension was inoculated in a volume of 100 μL into a subcutaneous part of a right flank of nude mice, 6 weeks of ages (CAnN.Cg-Foxnlnu/CrlCrlj, female, Charles River Laboratories Japan Inc.). Six days after cell inoculation (Day 1), the shortest diameter and the longest diameter of a tumor in each mouse were measured by using an electronic digital caliper (Digimatic™ caliper, Mitutoyo Corporation), so as to calculate the volume of the tumor in accordance with the following calculation formulae: […]
On the basis of the volumes of tumors obtained on Day 1, the mice were grouped such that averages of the tumor volumes were substantially equal among the groups. The experiment was conducted on groups each consisting of 6 mice. The test compound was dissolved in DMSO and a solution was stored in the freezer before use. Immediately before the administration, the stock solution was diluted with saline. […]

Experiment [4] has as its system human angiosarcoma CTG-2041 tumor fragments. Description: CTG-2041 xenograft as monotherapy (FIG. 17). The format is in vivo, mice. Conditions: 100 μg/kg i.v. Day 1 and Day 8. As for the experimental part:
Tumor fragments of human angiosarcoma CTG-2041 were implanted s.c. in the left flank of female mice. Tumor growth was monitored twice a week using digital caliper, so as to calculate the volume of the tumor in accordance with the following calculation formula: […]
When the volume of tumors reached approximately 200 mm^3, animals are matched by tumor volume into treatment or control groups and dosing initiated on Day 1. Each group was consisted with five mice. Compound (1) was dissolved in DMSO and a solution was stored in the freezer before use. Compound (1) (100 μg/kg) diluted in saline and intravenously injected on Day 1 and Day 8.

`C=C1C[C@@H]2CC[C@@]34C[C@H]5O[C@H]6[C@@H](O3)[C@H]3O[C@H](CC[C@@H]3O[C@H]6C5O4)CC(=O)O[C@@H]3[C@@H](C)[C@@H]4O[C@@H]5C[C@]6(C[C@@H]7O[C@]8(C[C@H](C)[C@@H]9O[C@H](CN)[C@H](O)C[C@@H]9O8)C[C@H](C)[C@@H]7O6)O[C@@H]5C[C@@H]4O[C@H]3C[C@H]3O[C@@H](CC[C@@H]1O2)C[C@@H](C)C3=C` (stereo in doubt) [Compound (1)]: the antitumor effect entry in experiment [1] (60 μg/kg i.v. Day 1 and Day 8) is “tumor regression”; in experiment [1] (180 μg/kg i.v. Day 1 and Day 8), “tumor regression”; in experiment [2] (60 μg/kg i.v. Day 1 and Day 8) it was “tumor growth delay”; in experiment [2] (180 μg/kg i.v. Day 1 and Day 8) it was “tumor regression”. In experiment [1] (180 μg/kg i.v. Day 1 and Day 8), the “xenograft tumors on Day 15” value was “completely eradicated the xenograft tumors in all mice”. In addition, the “xenograft tumors on Day 22” value in experiment [2] (180 μg/kg i.v. Day 1 and Day 8) is reported as “completely eradicated the xenograft tumors in all mice”. Further, the results for the antitumor activity result in experiment [3] and in experiment [4] were “tumor growth delay” and “tumor regression”, respectively.

Values taken from patent US20240309014A1, “MACROCYCLIC COMPOUNDS AND USES THEREOF” (President and Fellows of Harvard College, priority 2017, published 2024).
